{"source": "paper PMC10035507", "about": "“Inhibiting IGF1R-mediated Survival Signaling in Head and Neck Cancer with the Peptidomimetic SSTNIGF1R” (Cancer Research Communications, 2023)", "key": {"UM-SCC47 cells [1]": {"test_system": "UM-SCC47 cells", "assay": "Caspase assay (Caspase 3/7-GLO)", "type": "cell-based, human", "conditions": "24 hours, increasing concentrations of NQD1 up to 30 μmol/L", "method": "The activation of stress/apoptosis markers was analyzed as described previously ([17]). Caspase activity was measured in cells in complete culture medium with SSTNIGF1R or ASK inhibitor for 24 hours using Caspase 3/7-GLO in accordance with the manufacturer's instructions."}, "UM-SCC47 cells [2]": {"test_system": "UM-SCC47 cells"}, "[3]": {"test_system": "NOKs (normal oral keratinocytes)", "assay": "Cell proliferation assay (CellTiter-GLO)", "type": "cell-based, human", "conditions": "NOK, 4 days, up to 30 μmol/L, n = 3", "method": "(§1) Cells (1–2 × 10^3/well) were plated in 96-well plates in complete culture medium in the presence or absence of the SSTNIGF1R peptide for 72–120 hours, or alternatively in the presence or absence of the SSTNIGF1R peptide or ASK inhibitor for 24 hours. Cell growth was measured against a standard curve using CellTiter-GLO, in accordance with the manufacturer's instructions."}, "SCC6 HNSCC cell line": {"test_system": "SCC6 HNSCC cell line", "assay": "Cell proliferation assay (CellTiter-GLO)", "type": "cell-based, human", "conditions": "4 days, up to 30 μmol/L, n = 4", "method": "as §1"}, "UM-SCC1 HNSCC cell line": {"test_system": "UM-SCC1 HNSCC cell line", "assay": "Cell proliferation assay (CellTiter-GLO)", "type": "cell-based, human", "conditions": "4 days, up to 30 μmol/L, n = 4", "method": "as §1"}, "HaCaT keratinocytes": {"test_system": "HaCaT keratinocytes", "assay": "Cell proliferation assay (CellTiter-GLO)", "type": "cell-based, human", "conditions": "4 days, up to 30 μmol/L, n = 3", "method": "as §1"}, "normal HTE cells": {"test_system": "normal HTE cells", "assay": "Cell proliferation assay (CellTiter-GLO)", "type": "cell-based, human", "conditions": "4 days, up to 30 μmol/L, n = 3", "method": "as §1"}, "TU-138 HNSCC cell line": {"test_system": "TU-138 HNSCC cell line", "assay": "Cell proliferation assay (CellTiter-GLO)", "type": "cell-based, human", "conditions": "4 days, up to 30 μmol/L, n = 4", "method": "as §1"}, "SCC90 HNSCC cell line": {"test_system": "SCC90 HNSCC cell line", "assay": "Cell proliferation assay (CellTiter-GLO)", "type": "cell-based, human", "conditions": "4 days, up to 30 μmol/L, n = 4", "method": "as §1"}, "UD-SCC2 HNSCC cell line": {"test_system": "UD-SCC2 HNSCC cell line", "assay": "Cell proliferation assay (CellTiter-GLO)", "type": "cell-based, human", "conditions": "4 days, up to 30 μmol/L, n = 4", "method": "as §1"}}, "note": "Ends that are not written are not given here.", "data": [{"molecule": "CCOC(=O)c1c2c3c(cccc3[nH]c1=O)C(=O)c1ccccc1-2", "note": "[NQD1, NQDI-1]", "values": [{"measurement": "caspase 3 activation induced by 30 μmol/L SSTNIGF1R", "setting": "UM-SCC47 cells [1]", "value": "gradually reduce"}, {"measurement": "restoration of cell growth in the SSTN-treated cells", "setting": "UM-SCC47 cells [2]; UM-SCC47, 24 hours, NQD1 up to 30 μmol/L with 30 μmol/L SSTNIGF1R, CellTiter-GLO", "value": 80, "unit": "%"}]}, {"molecule": "LPAGEKPEEGEPVLHVEAEPGFTARDKE [active mSSTNIGF1R]", "values": [{"measurement": "IC50", "setting": "SCC25 cells", "value": "1 to 10", "unit": "µM"}, {"measurement": "IC50", "setting": "UM-SCC47 cells [2]", "value": "1 to 10", "unit": "µM"}, {"measurement": "cell growth", "setting": "[3]", "value": "unaffected"}, {"measurement": "cell growth", "setting": "SCC6 HNSCC cell line", "value": "reduced growth"}, {"measurement": "cell growth", "setting": "UM-SCC1 HNSCC cell line", "value": "reduced growth"}, {"measurement": "cell growth", "setting": "HaCaT keratinocytes", "value": "unaffected"}, {"measurement": "cell growth", "setting": "normal HTE cells", "value": "unaffected"}, {"measurement": "cell growth", "setting": "TU-138 HNSCC cell line", "value": "reduced growth"}, {"measurement": "cell growth", "setting": "SCC90 HNSCC cell line", "value": "reduced growth"}, {"measurement": "cell growth", "setting": "UD-SCC2 HNSCC cell line", "value": "reduced growth"}]}]}
